Experimental data from ChEMBL document CHEMBL4602657, “Design and evaluation of Nrf2 activators with 1,3,4-oxa/thiadiazole core as neuro-protective agents against oxidative stress in PC-12 cells” (Bioorg Med Chem Lett, 2020).
In brackets after ≈: the same amount, converted by molar mass. Activity calls are given as the source filed them. The calls are words filed in the database; no cut-off is given here.

Key:
[1] = target: T1, Nuclear factor erythroid 2-related factor 2 (Homo sapiens) (UniProt Q16236); assay: Activation of Nrf2 in human HepG2-ARE-C8 cells assessed as fold change at 0.1 uM measured after 12 hrs by luciferase reporter gene assay relative to control; assay type: cell-based
T1 sequence (whole entry): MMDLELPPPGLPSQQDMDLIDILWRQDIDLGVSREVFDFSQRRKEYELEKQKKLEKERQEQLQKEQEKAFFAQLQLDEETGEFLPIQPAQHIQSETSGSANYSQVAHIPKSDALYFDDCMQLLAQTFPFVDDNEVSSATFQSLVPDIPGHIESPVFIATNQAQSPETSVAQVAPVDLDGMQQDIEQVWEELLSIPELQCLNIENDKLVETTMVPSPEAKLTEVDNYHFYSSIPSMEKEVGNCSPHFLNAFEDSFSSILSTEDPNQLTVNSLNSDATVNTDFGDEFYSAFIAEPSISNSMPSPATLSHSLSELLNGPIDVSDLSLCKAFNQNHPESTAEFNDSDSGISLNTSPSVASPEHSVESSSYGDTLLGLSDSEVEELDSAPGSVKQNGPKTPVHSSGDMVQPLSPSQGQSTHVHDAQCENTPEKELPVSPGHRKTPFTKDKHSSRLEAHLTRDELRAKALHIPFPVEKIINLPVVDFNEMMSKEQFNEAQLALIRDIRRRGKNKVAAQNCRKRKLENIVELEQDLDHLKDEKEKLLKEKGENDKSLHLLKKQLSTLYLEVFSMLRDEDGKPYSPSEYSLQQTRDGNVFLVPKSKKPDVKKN

[2] = target: T1, Nuclear factor erythroid 2-related factor 2 (Homo sapiens); assay: Activation of Nrf2 in human HepG2-ARE-C8 cells assessed as fold change at 80 uM measured after 12 hrs by luciferase reporter gene assay relative to control; assay type: cell-based
[3] = target: T1, Nuclear factor erythroid 2-related factor 2 (Homo sapiens); assay: Activation of Nrf2 in human HepG2-ARE-C8 cells assessed as fold change at 1 uM measured after 12 hrs by luciferase reporter gene assay relative to control; assay type: cell-based
[4] = target: T1, Nuclear factor erythroid 2-related factor 2 (Homo sapiens); assay: Activation of Nrf2 in human HepG2-ARE-C8 cells assessed as fold change at 10 uM measured after 12 hrs by luciferase reporter gene assay relative to control; assay type: cell-based
[5] = target: T1, Nuclear factor erythroid 2-related factor 2 (Homo sapiens); assay: Activation of Nrf2 in human HepG2-ARE-C8 cells assessed as fold change at 40 uM measured after 12 hrs by luciferase reporter gene assay relative to control; assay type: cell-based
[6] = target: T1, Nuclear factor erythroid 2-related factor 2 (Homo sapiens); assay: Activation of Nrf2 in human HepG2-ARE-C8 cells assessed as fold change at 20 uM measured after 12 hrs by luciferase reporter gene assay relative to control; assay type: cell-based
PC-12 [7] = assay: Cytotoxicity against rat PC12 cells assessed as reduction in cell viability incubated for 24 hrs by MTT assay; assay type: cell-based; conditions: PC-12, 24 h
SH-SY5Y [8] = assay: Neuroprotective activity in human SH-SY5Y cells assessed as reduction in H2O2-induced cell damage at 10 to 20 uM preincubated for 6 hrs followed by H2O2 treatment and measured after 12 hrs by MTT assay; assay type: functional, cell-based
SH-SY5Y [9] = assay: Neuroprotective activity in human SH-SY5Y cells assessed as reduction in H2O2-induced cell damage at 5 uM preincubated for 6 hrs followed by H2O2 treatment and measured after 12 hrs by MTT assay; assay type: functional, cell-based
SH-SY5Y [10] = assay: Cytotoxicity against human SH-SY5Y cells assessed as reduction in cell viability at 100 uM by MTT assay; assay type: cell-based
PC-12 [11] = assay: Upregulation of NQ-O1 protein level in rat PC12 cell incubated for 12 hrs by Western blot analysis; assay type: functional, cell-based
PC-12 [12] = assay: Upregulation of NQ-O1 mRNA in rat PC12 cell incubated for 12 hrs by qRT-PCR analysis; assay type: functional, cell-based
PC-12 [13] = assay: Upregulation of HO-1 mRNA in rat PC12 cell incubated for 12 hrs by qRT-PCR analysis; assay type: functional, cell-based
PC-12 [14] = assay: Upregulation of Nrf2 protein level in rat PC12 cell incubated for 12 hrs by Western blot analysis; assay type: functional, cell-based
PC-12 [15] = assay: Upregulation of Nrf2 mRNA in rat PC12 cell incubated for 12 hrs by qRT-PCR analysis; assay type: functional, cell-based
[16] = Permeability of the compound by PAMPA; assay type: ADME; conditions: read-out: permeability
PC-12 [17] = assay: Upregulation of HO-1 protein level in rat PC12 cell incubated for 12 hrs by Western blot analysis; assay type: functional, cell-based
[18] = Intrinsic aqueous solubility of the compound; assay type: physicochemical; conditions: read-out: Intrinsic_solubility
[19] = Lipophilicity, logD of the compound at pH 7.4; assay type: physicochemical; conditions: buffer

| Structure (SMILES) | fold change (FC) [1] | fold change (FC) [2] | fold change (FC) [3] | fold change (FC) [4] | fold change (FC) [5] | fold change (FC) [6] | IC50 (PC-12 [7]) | Activity (SH-SY5Y [8]) | Activity (SH-SY5Y [9]) | Activity (SH-SY5Y [10]) | Activity (PC-12 [11]) | Activity (PC-12 [12]) | Activity (PC-12 [13]) | Activity (PC-12 [14]) | Activity (PC-12 [15]) | Papp [16] | Activity (PC-12 [17]) | solubility [18] | logD [19] |
| --- | --- | --- | --- | --- | --- | --- | --- | --- | --- | --- | --- | --- | --- | --- | --- | --- | --- | --- | --- |
| Brc1ccc(-c2nnc(-c3ccc4nc[nH]c4c3)o2)cc1 | 2.05 | 7.98 | 4.85 | 7.98 | 6.23 | 8.08 |  |  |  |  |  |  |  |  |  |  |  |  |  |
| Fc1cccc(-c2nnc(-c3ccc4nc[nH]c4c3)o2)c1 | 1.45 | 1.63 | 2.38 | 1.35 | 1.75 | 1.65 |  |  |  |  |  |  |  |  |  |  |  |  |  |
| c1ccc(-c2nnc(-c3ccc4nc[nH]c4c3)s2)cc1 | 1.7 | 15.7 | 2.03 | 8.95 | 13.8 | 8.18 |  |  |  |  |  |  |  |  |  |  |  |  |  |
| O=[N+]([O-])c1ccc(-c2nnc(-c3ccc4nc[nH]c4c3)s2)cc1 | 2.2 | 24.6 | 5.75 | 19.4 | 22.2 | 17.4 | > 500 µM | inactive | Active | Non-Toxic |  |  |  |  |  |  |  |  |  |
| c1ccc(-c2ccc(-c3nnc(-c4ccc5nc[nH]c5c4)o3)cc2)cc1 | 0.9 | 9.1 | 1.6 | 1.58 | 5.18 | 3.15 |  |  |  |  |  |  |  |  |  |  |  |  |  |
| CCCCc1ccc(-c2nnc(-c3ccc4nc[nH]c4c3)o2)cc1 | 1.8 | 19.6 | 6.73 | 14.8 | 24.6 | 15.9 | > 100 µM | Active | inactive | Non-Toxic | Dose-dependent effect | Dose-dependent effect | Dose-dependent effect | Dose-dependent effect | Dose-dependent effect | 12.3 ×10⁻⁶ cm/s | Dose-dependent effect |  |  |
| Fc1ccc(-c2nnc(-c3ccc4nc[nH]c4c3)o2)cc1 | 1.58 | 24.4 | 1.28 | 2.6 | 8.73 | 6.83 |  |  |  |  |  |  |  |  |  |  |  | 102 µM (≈ 28.7 µg/mL) | 2.89 |
| Fc1ccc(-c2nnc(-c3ccc4nc[nH]c4c3)s2)cc1 | 1.6 | 9.9 | 3.25 | 13.1 | 22.3 | 14.9 | > 500 µM | Active | inactive | Non-Toxic |  |  |  |  |  |  |  |  |  |
| COc1cccc(-c2nnc(-c3ccc4nc[nH]c4c3)o2)c1 | 1.64 | 7.5 | 1.72 | 1.72 | 2.41 | 1.83 |  |  |  |  |  |  |  |  |  |  |  |  |  |
| O=[N+]([O-])c1ccc(-c2nnc(-c3ccc4nc[nH]c4c3)o2)cc1 | 1.5 | 33.8 | 1.9 | 7.68 | 20.1 | 12.2 | > 100 µM | inactive | Active | Non-Toxic |  |  |  |  |  |  |  |  |  |
| CC(C)(C)c1cc(O)ccc1O | 1.68 | 4.73 | 1.7 |  | 5.1 |  |  |  |  |  |  |  |  |  |  |  |  |  |  |
| N#Cc1ccc(-c2nnc(-c3ccc4nc[nH]c4c3)o2)cc1 | 1.4 | 2.83 | 1.65 | 1.33 | 1.78 | 2.35 |  |  |  |  |  |  |  |  |  |  |  |  |  |
| Cc1ccc(-c2nnc(-c3ccc4nc[nH]c4c3)o2)cc1 | 1.4 | 6.6 | 1.45 | 3.25 | 4.95 | 3.35 |  |  |  |  |  |  |  |  |  |  |  |  |  |
| CCCCc1ccc(-c2nnc(-c3ccc4nc[nH]c4c3)s2)cc1 | 1.08 | 1.43 | 2.33 | 2.3 | 1.33 | 1.68 |  |  |  |  |  |  |  |  |  |  |  |  |  |
| c1ccc(-c2nnc(-c3ccc4nc[nH]c4c3)o2)cc1 | 1.7 | 19.1 | 2.35 | 6.7 | 13.5 | 9.15 |  |  |  |  |  |  |  |  |  |  |  |  |  |
